The target in this assay is ^125 I-insulin (Homo sapiens, UniProt P01308). Nature of the assay: 125I-insulin binding to water suspension of the peptide, centrifugation. The protocol:
To test for insulin binding, a water suspension of the peptide was incubated at room temperature with a tracer of ^125 I-insulin followed by simple centrifugation. […] The apparent dissociation constant was ~6×10^-7 M. Non-specific binding was negligible.

Here are results for 1 compound from patent US5227466A, “Insulin receptor binding site” (City of Hope, priority 1988, dated 1993).

Where a SMILES comes first, the peptide text is derived from it.

Chain of ^125 I-insulin (P01308 25-54 limits assumed): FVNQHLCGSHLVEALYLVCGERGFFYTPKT
Chain of ^125 I-insulin (P01308 90-110 limits assumed): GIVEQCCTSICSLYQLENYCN

With `CC[C@H](C)[C@H](NC(=O)[C@@H](NC(=O)[C@H](CC(C)C)NC(=O)[C@H](C)NC(=O)[C@H](Cc1ccc(O)cc1)NC(=O)[C@H](CC(N)=O)NC(=O)[C@H](Cc1ccccc1)NC(=O)[C@H](Cc1ccccc1)NC(=O)[C@H](CC(C)C)NC(=O)[C@@H](N)CCCNC(=N)N)C(C)C)C(=O)N[C@@H](Cc1ccccc1)C(=O)N[C@@H](CCC(=O)O)C(=O)N[C@@H](CCSC)C(=O)N[C@H](C(=O)N[C@@H](Cc1c[nH]cn1)C(=O)N[C@@H](CC(C)C)C(=O)N[C@@H](CCCCN)C(=O)N[C@@H](CCC(=O)O)C(=O)O)C(C)C` [Sequence I] (H-RLFFNYALVIFEMVHLKE-OH), under “displacement of ^125 I-insulin by unlabelled insulin (FIG. 4), read-out: apparent dissociation constant”, the Kd was ~600 nM. Also, the “fraction of ^125 I-insulin tracer bound by the peptide” value (water suspension of the peptide, room temperature, centrifugation) is on record as “up to 30%”.
